In US8263108B2, “Zero-order prolonged release coaxial implants” (Durect Corporation, priority 2001, dated 2012):

Legend:
[1] = Release of interferon from implants incubated in phosphate buffered saline; type: physicochemical; conditions: 30 vol % NaCl/PCL tubing filled with 20 mg α-interferon suspension in SAIB, ends sealed
Description: Using nitrogen gas as the core feed, a mixture comprising 30 vol % NaCl in PCL was extruded as described above through the outer ring of a coaxial die to form tubing having an overall diameter of about 3 mm. Implants containing α-interferon were prepared from the tubing by filling a short length of tubing with a suspension containing 20 mg of α-interferon in sucrose acetate isobutyrate (SAIB) and sealing the ends of the tube.
The implants, when incubated in phosphate buffered saline, released interferon for several days.

[2] = In vitro dissolution of cromolyn sodium coaxial implants; type: physicochemical; conditions: 50 wt % cromolyn/PCL core, PBS pH 7.4, 37° C.
Description: Coaxial rods were produced by operating the two Randcastle extruders simultaneously. The core material (cromolyn/PCL) was fed through the center orifice of the die on the first extruder to form the implant core. […] Individual implants with a diameter of approximately 2 mm were cut to a length of 2 cm. The exposed ends were sealed with the same polymer as the membrane. Cromolyn release was determined in vitro using a simple dissolution test. Individual implants were placed in 4-oz amber jars with 40 mL of buffer (phosphate buffered saline, pH 7.4, with 0.05% sodium azide) and incubated at 37° C. Periodically, aliquots of buffer were removed and replaced with fresh buffer. The cromolyn concentration in each sample was determined by HPLC.

| Molecule | duration of interferon release [1] | effect of membrane thickness on release of cromolyn ([2]; 30 vol % cromolyn/PCL membrane (pore-forming agent), FIG. 8) | release from sealed versus unsealed implant ([2]; 30 vol % lactose/PCL membrane, FIG. 9) |
| --- | --- | --- | --- |
| α-interferon | several days | – | – |
| O=C(O)c1cc(=O)c2c(OCC(O)COc3cccc4oc(C(=O)O)cc(=O)c34)cccc2o1 [cromolyn, cromolyn sodium] | – | A thicker polymer membrane causes slower release | the unsealed implant releases faster than the sealed |
